According to the NIST ThermoML archive (doi:10.1016/j.jct.2014.01.012):

Columns and labels:
[1] = refractive index (Na D-line) (dimensionless); details: 101.33 kPa, Liquid
[2] = 101.33 kPa, Liquid
[3] = refractive index (Na D-line) (dimensionless); xn = mol fraction of the nth substance listed; details: 101 kPa, Liquid, x2 = 0
[4] = xn = mol fraction of the nth substance listed; details: 101 kPa, Liquid, x2 = 0

CCCCCCn1cc[n+](C)c1.F[P-](F)(F)(F)(F)F [1-hexyl-3-methylimidazolium hexafluorophosphate]
Details | mass density, Vibrating tube method [kg/m3] | refractive index, Standard Abbe refractometry | speed of sound, Sing-around technique in a fixed-path interferometer [m/s]
[1], 293.15 K | – | 1.42064 | –
[1], 298.15 K | – | 1.41935 | –
[1], 303.15 K | – | 1.41806 | –
[1], 308.15 K | – | 1.41676 | –
[1], 313.15 K | – | 1.41547 | –
[1], 318.15 K | – | 1.41417 | –
[1], 323.15 K | – | 1.41288 | –
[2], 293.15 K | 1291.38 | – | 1436.9
[2], 298.15 K | 1287.34 | – | 1423.5
[2], 303.15 K | 1283.29 | – | 1410.6
[2], 308.15 K | 1279.4 | – | 1398.2
[2], 313.15 K | 1275.48 | – | 1386
[2], 318.15 K | 1271.56 | – | 1374.2
[2], 323.15 K | 1267.63 | – | 1362.5

CCOC(C)=O [ethyl acetate] + CCCCCCCC[n+]1ccn(C)c1.F[P-](F)(F)(F)(F)F
Details | mass density, [4] [kg/m3] | refractive index, [3] | speed of sound, [4] [m/s]
293.15 K | 900.573 | 1.37237 | 1162.4
298.15 K | 894.473 | 1.36982 | 1139.8
303.15 K | 888.347 | 1.36727 | 1117.2
308.15 K | 882.172 | 1.36473 | 1094.7
313.15 K | 875.951 | 1.36219 | 1072.4
318.15 K | 869.681 | 1.35968 | 1050.1
323.15 K | 863.358 | 1.35732 | 1028

CCCCOC(C)=O [butyl ethanoate] + CCCCCCn1cc[n+](C)c1.F[P-](F)(F)(F)(F)F
Details | mass density, Vibrating tube method [kg/m3] | refractive index, Standard Abbe refractometry | speed of sound, Sing-around technique in a fixed-path interferometer [m/s]
[3], 293.15 K | – | 1.39428 | –
[3], 298.15 K | – | 1.39188 | –
[3], 303.15 K | – | 1.38948 | –
[3], 308.15 K | – | 1.3871 | –
[3], 313.15 K | – | 1.38469 | –
[3], 318.15 K | – | 1.38227 | –
[3], 323.15 K | – | 1.37984 | –
[4], 293.15 K | 881.134 | – | 1211.3
[4], 298.15 K | 876.004 | – | 1190.5
[4], 303.15 K | 870.855 | – | 1169.8
[4], 308.15 K | 865.685 | – | 1149.2
[4], 313.15 K | 860.492 | – | 1128.8
[4], 318.15 K | 855.275 | – | 1108.5
[4], 323.15 K | 850.032 | – | 1088.3

CCOC(C)=O [ethyl acetate]
Details | mass density, Vibrating tube method [kg/m3] | refractive index, Standard Abbe refractometry | speed of sound, Sing-around technique in a fixed-path interferometer [m/s]
[1], 293.15 K | – | 1.37237 | –
[1], 298.15 K | – | 1.36982 | –
[1], 303.15 K | – | 1.36727 | –
[1], 308.15 K | – | 1.36473 | –
[1], 313.15 K | – | 1.36219 | –
[1], 318.15 K | – | 1.35968 | –
[1], 323.15 K | – | 1.35732 | –
[2], 293.15 K | 900.573 | – | 1162.4
[2], 298.15 K | 894.473 | – | 1139.8
[2], 303.15 K | 888.347 | – | 1117.2
[2], 308.15 K | 882.172 | – | 1094.7
[2], 313.15 K | 875.951 | – | 1072.4
[2], 318.15 K | 869.681 | – | 1050.1
[2], 323.15 K | 863.358 | – | 1028

CCOC(C)=O [ethyl acetate] + CCCCCCn1cc[n+](C)c1.F[P-](F)(F)(F)(F)F
[3]
Details | refractive index
293.15 K | 1.37237
298.15 K | 1.36982
303.15 K | 1.36727
308.15 K | 1.36473
313.15 K | 1.36219
318.15 K | 1.35968
323.15 K | 1.35732

[4]
Details | mass density, Vibrating tube method [kg/m3] | speed of sound, Sing-around technique in a fixed-path interferometer [m/s]
293.15 K | 900.573 | 1162.4
298.15 K | 894.473 | 1139.8
303.15 K | 888.347 | 1117.2
308.15 K | 882.172 | 1094.7
313.15 K | 875.951 | 1072.4
318.15 K | 869.681 | 1050.1
323.15 K | 863.358 | 1028

CCCCOC(C)=O [butyl ethanoate] + CCCCCCCC[n+]1ccn(C)c1.F[P-](F)(F)(F)(F)F
Details | mass density, [4] [kg/m3] | refractive index, [3] | speed of sound, [4] [m/s]
293.15 K | 881.134 | 1.39428 | 1211.3
298.15 K | 876.004 | 1.39188 | 1190.5
303.15 K | 870.855 | 1.38948 | 1169.8
308.15 K | 865.685 | 1.3871 | 1149.2
313.15 K | 860.492 | 1.38469 | 1128.8
318.15 K | 855.275 | 1.38227 | 1108.5
323.15 K | 850.032 | 1.37984 | 1088.3

CCCCOC(C)=O [butyl ethanoate]
Details | mass density, Vibrating tube method [kg/m3] | refractive index, Standard Abbe refractometry | speed of sound, Sing-around technique in a fixed-path interferometer [m/s]
[1], 293.15 K | – | 1.39428 | –
[1], 298.15 K | – | 1.39188 | –
[1], 303.15 K | – | 1.38948 | –
[1], 308.15 K | – | 1.3871 | –
[1], 313.15 K | – | 1.38469 | –
[1], 318.15 K | – | 1.38227 | –
[1], 323.15 K | – | 1.37984 | –
[2], 293.15 K | 881.134 | – | 1211.3
[2], 298.15 K | 876.004 | – | 1190.5
[2], 303.15 K | 870.855 | – | 1169.8
[2], 308.15 K | 865.685 | – | 1149.2
[2], 313.15 K | 860.492 | – | 1128.8
[2], 318.15 K | 855.275 | – | 1108.5
[2], 323.15 K | 850.032 | – | 1088.3

CCCCCCCC[n+]1ccn(C)c1.F[P-](F)(F)(F)(F)F [1-octyl-3-methylimidazolium hexafluorophosphate]
Details | mass density, [2] [kg/m3] | refractive index, [1] | speed of sound, [2] [m/s]
293.15 K | 1222.81 | 1.42649 | 1388.2
298.15 K | 1218.9 | 1.42512 | 1373.4
303.15 K | 1214.96 | 1.42376 | 1359.3
308.15 K | 1211.13 | 1.4224 | 1345.8
313.15 K | 1207.33 | 1.42103 | 1332.7
318.15 K | 1203.5 | 1.41967 | 1320.1
323.15 K | 1199.67 | 1.41831 | 1307.7
